From PubChem BioAssay (NCI) come the findings set out here.

SMILES strings stand for the structures.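 Exposure lasted 48 hours, with cells grown in 96-well plates and compounds tested at five concentrations. GI50 = concentration required for 50% inhibition of growth. TGI: total growth inhibition.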 Bounds are passed on as bounds.

Common to all, as to experiment: inhibition of tumour cell growth, NCI panel, 48 h
The subject of assay [1] is UACC-62 melanoma.
Assay [2] concerns SNB-75 CNS.
Assay [3] deals with LOX IMVI melanoma.
Assay [4] deals with NCI-H23 lung.
In assay [5] the test system is SF-268 CNS.
Assay [6] relates to SF-539 CNS.
Assay [7] relates to CCRF-CEM leukemia.
The test system of assay [8] is OVCAR-8 ovarian.
The test system of assay [9] is MCF7 breast.
The subject of assay [10] is A498 renal.

`O=CN1CCN(c2ccc3ccc(=O)[nH]c3n2)CC1`: the TGI in assay [1], in assay [2], in [3], in [4], in assay [5] and in [6] was more than 100 µM in each case. In addition, the TGI in assay [7], in assay [8] and in assay [9] was more than 100 µM each time.

With `C[N+]1(C)CCCC(C#N)(c2ccccc2)CC1` (stereo not given), the TGI in [2], in assay [4], in assay [5], in assay [7], in assay [10] and in [8] was more than 100 µM throughout. This compound also displayed a TGI in assay [9] of more than 100 µM.

In the case of `C[C@]12CC[C@H]3[C@@H](CC=C4C[C@@H](O)CC[C@@]43C)[C@@H]1C/C(=C\c1cccnc1)[C@@H]2O`, the TGI in assay [1] was 39.8 µM; in assay [3], 4.46 µM; in assay [4], more than 100 µM; in assay [6], 81.6 µM; in [7], more than 100 µM; in assay [10], 42.9 µM. Further, the TGI worked out at 36.3 µM in [8] and 42.5 µM in assay [9].

On to `CCOC(=O)C(O)(CC1=NC(C(=O)OC)(C(=O)OC)C(c2cccc(C=O)c2)O1)C(=O)OCC` (stereo not given), for which the TGI in assay [1], in [2], in assay [3], in assay [4], in [7] and in [10] was more than 100 µM throughout. Moreover, the TGI in [8] and in [9] was more than 100 µM throughout.

As for `CN(C)C(=O)C(F)(F)C(c1ccccc1)C1C(=O)N(C)C(=O)N(C)C1=O` (stereo not given), the TGI in assay [1], in [2], in assay [3], in assay [4], in assay [5] and in [7] was more than 100 µM throughout. In addition, the TGI in assay [10], in assay [8] and in assay [9] was more than 100 µM throughout.

Turning to `Cc1ccc(S(=O)(=O)OC[C@@]2(C)CC[C@]3(C)CC[C@]4(C)C(=C3C2)C=C[C@@H]2[C@@]3(C)CCCNC(C)(C)[C@@H]3CC[C@]24C)cc1`, the GI50 was 1.61 µM in assay [2]; 1.82 µM in [4]; 1.95 µM in assay [5]; 1.71 µM in assay [6]; 2.14 µM in [7]; 1.71 µM in assay [10]. Moreover, the TGI stood at 3.1 µM in assay [2]; 3.42 µM in assay [4]; 4.12 µM in [5]; 3.11 µM in assay [6]; 6.06 µM in assay [7]; 3.13 µM in assay [10].

As to `CN(C)S(=O)(=O)c1ccc2[nH]c(O)c(C3=Nc4ccccc4C3=O)c2c1`, the TGI is 34.9 µM in [1]; 10.3 µM in assay [2]; more than 100 µM in [3]; 29.9 µM in assay [4]; 38.7 µM in assay [5]; more than 100 µM in assay [7]. Besides, the TGI in assay [10] is 97.4 µM; in assay [8], more than 100 µM; in assay [9] it was more than 100 µM.

Regarding `C=CCOCC1C2CCC3(OCCO3)C21` (stereo not given), the TGI in [1], in [2], in assay [3], in assay [4], in assay [5] and in assay [6] was more than 100 µM in each case. Moreover, the TGI in assay [7], in assay [8] and in assay [9] was more than 100 µM each time.

As to `O=C(O)CN1C(=O)c2ccc(NC(=O)C(=O)O)cc2S1(=O)=O`, the TGI in assay [1], in assay [3], in [4], in assay [5], in assay [7] and in assay [10] was more than 100 µM each time. The same compound displayed a TGI in assay [9] of more than 100 µM.

In the case of `[CH3][Sn]([CH3])([CH3])[S]C(=S)N1CCOCC1`, the GI50 was 0.553 µM in assay [1]; 3.34 µM in assay [2]; 1.39 µM in [3]; 0.345 µM in assay [4]; 3.65 µM in assay [5]; 0.0701 µM in assay [7]. Further, the GI50 is 15.3 µM in [10], 3.69 µM in assay [8] and 0.0342 µM in assay [9]. Besides, the TGI in assay [2] is more than 31.4 µM; in [3] it was 6.75 µM; in assay [4], 4.94 µM; in assay [5], more than 100 µM; in assay [7], 1.67 µM; in [10], 73.8 µM. The TGI in assay [8] is more than 85.4 µM; in [9], 0.619 µM.

Consider `CCOC(=O)C1=C(O)CC(=O)N=C1N1CCCC1`, for which the TGI in assay [1], in assay [3], in assay [4], in assay [5], in assay [6] and in assay [7] was more than 100 µM each time. Besides, the TGI in assay [10] and in assay [8] was more than 100 µM in each case.

For `c1ccc(C(Oc2noc3ccccc23)c2ccccc2)cc1`, the TGI was more than 100 µM in assay [1]; 37 µM in [2]; more than 100 µM in assay [3]; more than 100 µM in [4]; more than 100 µM in assay [5]; 49.7 µM in assay [7]. Further, the TGI in assay [10], in assay [8] and in assay [9] was more than 100 µM throughout.

Consider `COC(=O)/C=C(C)/C=C\COC1CCCCO1` (stereo not given), for which the TGI in assay [1], in assay [2], in [3], in assay [4], in [5] and in assay [7] was more than 100 µM throughout. The TGI in [10], in assay [8] and in assay [9] was more than 100 µM throughout.

Turning to `CC(C)=CCC[C@@H](C)C1=C(O)C(N[C@H](C)c2ccccc2)=C(C)C(=O)C1=O`, the TGI in assay [1] was 9.71 µM; in assay [2], more than 56.4 µM; in assay [3], 22.1 µM; in assay [4] it was 34.2 µM; in [5], more than 64.3 µM; in assay [6], 10.2 µM. Moreover, the TGI in assay [10] was 32 µM; in [8], more than 24.1 µM; in [9], 17.9 µM.
